This note sets out measurements from patent US10525041B2, “Fluoroalkyl-substituted aryltriazole derivatives and uses thereof” (BAYER PHARMA AKTIENGESELLSCHAFT, priority 2016, dated 2020).

Structures are written as SMILES.

The target in one assay is T1, human V1a receptor (Homo sapiens, UniProt P37288).
T1 construct: expressed in transfected cells; host or cells: CHO K1 (ATCC), also stably transfected with a modified aequorin
The assay can be described thus: Cellular in vitro assay for vasopressin receptor activity, V1a cell line (aequorin luminescence). Particulars: for IC50: CHO cell line transfected with human V1a receptor, agonist [Arg8]-vasopressin at EC50 concentration, read-out: IC50hV1a; for ratio IC50 hV2/hV1a: ratio of the IC50 on human V2 to the IC50 on human V1a. The class given is cell-based. In a few lines:
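CHO K1 cells stably expressing human V1a receptor with aequorin photoprotein, loaded overnight with coelenterazine. Compounds preincubated 10 min at various concentrations, then challenged with [Arg^8]-vasopressin at EC50 concentration. Calcium-driven luminescence read immediately; IC50 values derived.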

A further assay deals with T2, human V2 receptor (Homo sapiens, UniProt P30518).
T2 construct: expressed in transfected cells; host or cells: CHO K1 (ATCC) line expressing firefly luciferase under a CRE-responsive promoter
The assay can be described thus: Cellular in vitro assay for vasopressin receptor activity, V2 cell line (CRE-luciferase). The settings on record: CHO cell line transfected with human V2 receptor; agonist [Arg8]-vasopressin at EC50 concentration, 3 hours; read-out: IC50hV2. The class given is cell-based.

T2 sequence (P30518 whole entry): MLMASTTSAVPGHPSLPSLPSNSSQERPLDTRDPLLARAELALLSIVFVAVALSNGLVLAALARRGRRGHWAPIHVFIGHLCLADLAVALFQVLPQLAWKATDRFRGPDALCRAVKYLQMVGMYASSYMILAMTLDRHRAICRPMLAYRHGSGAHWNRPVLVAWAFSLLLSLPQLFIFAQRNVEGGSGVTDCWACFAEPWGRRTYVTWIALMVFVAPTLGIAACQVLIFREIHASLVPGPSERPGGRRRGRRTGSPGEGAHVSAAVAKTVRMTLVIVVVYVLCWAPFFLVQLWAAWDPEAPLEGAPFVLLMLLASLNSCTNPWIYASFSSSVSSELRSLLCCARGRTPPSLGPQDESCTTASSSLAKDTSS
T1 sequence (P37288 whole entry): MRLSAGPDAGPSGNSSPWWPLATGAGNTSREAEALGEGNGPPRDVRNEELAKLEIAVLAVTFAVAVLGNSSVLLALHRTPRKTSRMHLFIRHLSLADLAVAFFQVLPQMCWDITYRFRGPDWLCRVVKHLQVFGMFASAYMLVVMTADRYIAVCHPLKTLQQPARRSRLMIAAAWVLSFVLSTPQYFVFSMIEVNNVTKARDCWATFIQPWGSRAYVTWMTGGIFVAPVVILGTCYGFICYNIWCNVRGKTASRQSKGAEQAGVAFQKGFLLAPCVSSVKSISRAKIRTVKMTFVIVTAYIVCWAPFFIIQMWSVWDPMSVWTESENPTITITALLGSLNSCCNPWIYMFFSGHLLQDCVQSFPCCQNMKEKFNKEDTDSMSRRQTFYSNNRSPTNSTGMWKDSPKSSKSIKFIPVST

Take `CSc1ccccc1-n1nc(Cn2nc(-c3ccc(Cl)cc3)n(C[C@H](O)C(F)(F)F)c2=O)nc1C(C)(F)F` [Example 74, 5-(4-Chlorophenyl)-2-({5-(1,1-difluoroethyl)-1-[2-(methylsulfanyl)phenyl]-1H-1,2,4-triazol-3-yl}methyl)-4-[(2S)-3,3,3-trifluoro-2-hydroxypropyl]-2,4-dihydro-3H-1,2,4-triazol-3-one]: on human V1a receptor, the IC50 was 1.4 nM and the “ratio IC50 hV2/hV1a” value stood at 0.7. Also, the IC50 at human V2 receptor was determined as 0.98 nM.
In the same order, the values of `O=c1n(Cc2nc(C(F)(F)C3(O)CCCC3)n(-c3ccccc3Cl)n2)nc(-c2ccc(Cl)cc2)n1C[C@H](O)C(F)(F)F` [Example 75, 5-(4-Chlorophenyl)-2-({1-(2-chlorophenyl)-5-[difluoro(1-hydroxycyclopentyl)methyl]-1H-1,2,4-triazol-3-yl}methyl)-4-[(2S)-3,3,3-trifluoro-2-hydroxypropyl]-2,4-dihydro-3H-1,2,4-triazol-3-one] are 0.85 nM, 6.4 and 5.4 nM.
`NCC(F)(F)c1nc(Cn2nc(-c3ccc(Cl)cc3)n(C[C@H](O)C(F)(F)F)c2=O)nn1-c1ccccc1Cl.O=CO` [Example 76, 2-{[5-(2-Amino-1,1-difluoroethyl)-1-(2-chlorophenyl)-1H-1,2,4-triazol-3-yl]methyl}-5-(4-chlorophenyl)-4-[(2S)-3,3,3-trifluoro-2-hydroxypropyl]-2,4-dihydro-3H-1,2,4-triazol-3-one]: at human V1a receptor, the IC50 amounted to 0.91 nM and the “ratio IC50 hV2/hV1a” value is listed as 3.5. For the same molecule, the IC50 at human V2 receptor was 3.15 nM.
On to `O=c1n(Cc2nc(C(F)(F)C3CCOCC3)n(-c3ccccc3Cl)n2)nc(-c2ccc(Cl)cc2)n1C[C@H](O)C(F)(F)F` [Example 77, 5-(4-Chlorophenyl)-2-({1-(2-chlorophenyl)-5-[difluoro(tetrahydro-2H-pyran-4-yl)methyl]-1H-1,2,4-triazol-3-yl}methyl)-4-[(2S)-3,3,3-trifluoro-2-hydroxypropyl]-2,4-dihydro-3H-1,2,4-triazol-3-one], for which, on human V1a receptor, the IC50 amounted to 1.4 nM and the “ratio IC50 hV2/hV1a” value worked out at 5.0. Moreover, the IC50 on human V2 receptor is 7.03 nM.
Turning to `O=c1n(Cc2nc(C(F)(F)F)n(-c3cccc(F)c3)n2)nc(-c2ccc(Cl)cc2)n1C[C@H](O)C(F)(F)F` [Example 78, 5-(4-Chlorophenyl)-2-{[1-(3-fluorophenyl)-5-(trifluoromethyl)-1H-1,2,4-triazol-3-yl]methyl}-4-[(2S)-3,3,3-trifluoro-2-hydroxypropyl]-2,4-dihydro-3H-1,2,4-triazol-3-one], at human V1a receptor, the IC50 turned out to be 49.6 nM and the “ratio IC50 hV2/hV1a” value amounted to 0.1. Moreover, the IC50 at human V2 receptor worked out at 4.75 nM.
Turning to `O=c1n(Cc2nc(C(F)(F)F)n(-c3ccccc3Cl)n2)nc(-c2ccc(Cl)cc2)n1C[C@H](O)C(F)(F)F` [Example 79, 5-(4-Chlorophenyl)-2-{[1-(2-chlorophenyl)-5-(trifluoromethyl)-1H-1,2,4-triazol-3-yl]methyl}-4-[(2S)-3,3,3-trifluoro-2-hydroxypropyl]-2,4-dihydro-3H-1,2,4-triazol-3-one], on human V1a receptor, the IC50 came to 0.78 nM and the “ratio IC50 hV2/hV1a” value amounted to 3.3. The IC50 at human V2 receptor was determined as 2.58 nM.
